Test results taken from patent US20040215021A1, “Stable lansoprazole containing more than 500 ppm, up to about 3,000 ppm water and more than 200 ppm, up to about 5,000 ppm alcohol” (priority 2002, published 2004).
Where two headings read alike, the source gives them in different places. Each block holds one compound with its values, some of them ahead of it.

Tests used:
[1] = Stability of lansoprazole under different storage conditions (HPLC impurities); assay type: physicochemical
Text: The obtained lansoprazole is stable.
(§1) Chromatographic purity method of lansoprazole is detailed in the monograph in USP Forum Vol.26(5) [September-October 2000].

[2] = Stability of stabilized vs. non-stabilized 'solvent-free' lansoprazole (HPLC impurities, color); assay type: physicochemical; conditions: 3 months, 40° C., 75% humidity
Text: as §1

[3] = cited from earlier work

Stability (in words) ([1]; Example 4, wet product before drying, water about 2,200 ppm, ethanol about 300 to about 500 ppm expected): behave similarly to the dry lansoprazole
SMILES: Cc1c(OCC(F)(F)F)ccnc1C[S+]([O-])c1nc2ccccc2[nH]1 (centres unmarked) [wet lansoprazole product]

Color [2]: White
LNP-SO2 [2]: 0.02%
LNPS [2]: 0.03%
Total Impurities [2]: 0.08%
SMILES: Cc1c(OCC(F)(F)F)ccnc1C[S+]([O-])c1nc2ccccc2[nH]1 (centres unmarked) [Lansoprazole Stabilized With Ammonia]

LNP-SO2 ([1]; 1 month, 2-8° C.): 0.04%
LNPS ([1]; 1 month, 2-8° C.): 0.01%
Total Impurities ([1]; 1 month, 2-8° C.): 0.05%
LNP-SO2 ([1]; 1 month, 25° C., 60% humidity): 0.04%
LNPS ([1]; 1 month, 25° C., 60% humidity): 0.01%
Total Impurities ([1]; 1 month, 25° C., 60% humidity): 0.09%
LNP-SO2 ([1]; 2 month, 2-8° C.): 0.04%
LNPS ([1]; 2 month, 2-8° C.): 0.01%
Total Impurities ([1]; 2 month, 2-8° C.): 0.05%
LNP-SO2 ([1]; 2 month, 25° C., 60% humidity): 0.04%
LNPS ([1]; 2 month, 25° C., 60% humidity): 0.01%
Total Impurities ([1]; 2 month, 25° C., 60% humidity): 0.08%
LNP-SO2 ([1]; 2 weeks, 25° C., 60% humidity): 0.04%
LNPS ([1]; 2 weeks, 25° C., 60% humidity): <detection limit
Total Impurities ([1]; 2 weeks, 25° C., 60% humidity): 0.04%
LNP-SO2 ([1]; 3 month, 2-8° C.): 0.04%
LNPS ([1]; 3 month, 2-8° C.): <detection limit
Total Impurities ([1]; 3 month, 2-8° C.): 0.04%
LNP-SO2 ([1]; 3 month, 25° C., 60% humidity): 0.04%
LNPS ([1]; 3 month, 25° C., 60% humidity): <detection limit
Total Impurities ([1]; 3 month, 25° C., 60% humidity): 0.1%
LNP-SO2 ([1]; 6 month, 2-8° C.): 0.04%
LNPS ([1]; 6 month, 2-8° C.): <detection limit
Total Impurities ([1]; 6 month, 2-8° C.): 0.04%
LNP-SO2 ([1]; 6 month, 25° C., 60% humidity): 0.04%
LNPS ([1]; 6 month, 25° C., 60% humidity): <detection limit
Total Impurities ([1]; 6 month, 25° C., 60% humidity): 0.12%
LNP-SO2 ([1]; 9 month, 2-8° C.): 0.05%
LNPS ([1]; 9 month, 2-8° C.): <detection limit
Total Impurities ([1]; 9 month, 2-8° C.): 0.05%
LNP-SO2 ([1]; 9 month, 25° C., 60% humidity): 0.05%
LNPS ([1]; 9 month, 25° C., 60% humidity): 0.04%
Total Impurities ([1]; 9 month, 25° C., 60% humidity): 0.18%
LNPS ([1]; 12 month, 2-8° C.): <detection limit
Total Impurities ([1]; 12 month, 2-8° C.): 0.03%
LNP-SO2 ([1]; 12 month, 25° C., 60% humidity): 0.04%
LNPS ([1]; 12 month, 25° C., 60% humidity): 0.07%
Total Impurities ([1]; 12 month, 25° C., 60% humidity): 0.32%
Stability (in words) ([1]; product of Example 2, water 2,200 ppm, alcohol <50 ppm): stable
LNP-SO2 ([1]; time 0): 0.04%
LNPS ([1]; time 0): <detection limit
Total Impurities ([1]; time 0): 0.04%
SMILES: Cc1c(OCC(F)(F)F)ccnc1C[S+]([O-])c1nc2ccccc2[nH]1 (centres unmarked) [Lansoprazole, 2-[[[3-methyl-4-(2,2,2-trifluoro-ethoxy)-2-pyridinyl]methyl]sulfinyl]-1H-benzimidazole]
Color on storage ([3]; 4 months at 40° C. and 75% room humidity): pale brown
Color on storage ([3]; 4 months at 40° C., absence of humidity): pale yellowish brown

Color [2]: Brownish
LNP-SO2 [2]: 0.04%
LNPS [2]: 0.06%
Total Impurities [2]: 0.31%
SMILES: Cc1c(OCC(F)(F)F)ccnc1C[S+]([O-])c1nc2ccccc2[nH]1 (centres unmarked) [Lansoprazole Not Stabilized With Ammonia]
